Data on three molecules can be found in patent US20220249440A1, “MUSCLE RE[…]” (SATO PHARMACEUTICAL CO., LTD., priority 2019, published 2022).

The target in one assay is 5-HT2B receptor (Homo sapiens, UniProt P41595). Conditions: cited literature: Br. J. Pharmacol. 128(1):13-20, 1999; J. Pharmacol. Exp. Ther. 347(3):645-59, 2013; cited from earlier work.
The subject of assay [1] is muscle-damaged model animal (CTX administered to tibialis anterior muscle). Briefly: Muscle regeneration in cardiotoxin (CTX) muscle-damaged model animal; area of regenerated single muscle fibers with central nuclei in tibialis anterior muscle. In kind it is in vivo, C57BL/6 male mice. Conditions: 10 μL intramuscular into tibialis anterior muscle once a day from day before CTX to 6 day after CTX; for increase in the mean muscle fiber area of regenerated muscle as compared with the Vehicle administration group: 7 days after CTX, P<0.0001; for histogram of the regenerated single-muscle fiber area vs Vehicle administration group: muscle collected 7 days after CTX. As to the method: Seven-week old C57BL/6 male mice (CLEA Japan, Inc.) were purchased, and used for experiment at the age of 8 weeks.
A model animal to which muscle damage had been caused by administration of snake venom cardiotoxin (CTX) was used. The muscle-damaged model animal has been widely used in studies on the regeneration from muscle damage.
Under the anesthesia with isoflurane, 50 μL of 10 μM CTX was administered to the tibialis anterior muscle of the right hindlimb of the mouse. After 7 days of the administration of CTX, the tibialis anterior muscle was collected by dissection, and supplied to the preparation of a muscle tissue section.
Immediately after the collection of the tibialis anterior muscle, the tibialis anterior muscle was immersed in isopentane cooled with liquid nitrogen and was rapidly frozen. The frozen muscle tissue was cut into slices each having a thickness of 10 μm by using a cryostat (Leica Biosystems), and the slice was attached onto an antistripping coated slide glass (Matsunami Glass Ind., Ltd).
A muscle tissue section was sufficiently air dried for 30 minutes under room temperature. After that, the muscle tissue section was fixed by immersing it in acetone cooled to −30° C. and treating at −30° C. for 20 minutes. The fixed section was air dried once and washed with PBS. Then the section was blocked by dropwisely adding a blocking reagent (Blocking One, NACALAI TESQUE, INC.) to the section and being subjected to the blocking treatment for 1 hour. Next, a primary antibody (Anti-Laminin-2 (α-2 Chain) antibody, Rat monoclonal (Sigma-Aldrich)) obtained by being diluted 500 times with the blocking reagent was added dropwise, and the reaction was conducted at overnight at 4° C. Since laminin to which a primary antibody binds is a protein expressed in all muscle cells, the primary antibody was used in this experiment in order to measure the area of individual muscle cells in a section. The muscle tissue section after the reaction with the primary antibody was washed with PBS, and then was reacted for 1 hour with a secondary antibody (CF 488A Goat Anti-Rat IgG (H+L) (Biotium)) obtained by being diluted 500 times with the blocking reagent. The secondary antibody that is an anti-rat antibody conjugated with a fluorescent dye binds to the primary antibody, and stains the laminin. The muscle tissue section after the reaction with the secondary antibody was washed with PBS, and sealed by using “[…] Hard⋅Set with DAPI” (Vector), and then the fluorescence observation was performed with an inverted microscope FSX100 (OLYMPUS). The “[…] Hard⋅Set with DAPI” was used for staining the central nucleus of muscle cells.
The muscle regeneration was evaluated on the basis of the image data taken from the fluorescence observation. In this experiment, muscle cells each having a central nucleus (single muscle fibers having central nuclei) were used as an indicator for regenerated muscle. After the image data was taken into image analysis software ImageJ (NIH), a muscle cell having a central nucleus was extracted. The cross-sectional area of the extracted individual cells was measured on the basis of the cell membrane stained with laminin. For the area measurement, “Analyze Particles” that is an add-in analysis program on ImageJ was used. The measurement results were shown as a distribution chart (histogram) of the area and number of regenerated single-muscle fibers, and as an average value of the cross-sectional areas of all the regenerated single muscle fibers (mean muscle fiber area).

The mark [2] stands for this setting: 5 mM in PBS with 5% dimethyl sulfoxide.

Sequence of 5-HT2B receptor (P41595 whole entry): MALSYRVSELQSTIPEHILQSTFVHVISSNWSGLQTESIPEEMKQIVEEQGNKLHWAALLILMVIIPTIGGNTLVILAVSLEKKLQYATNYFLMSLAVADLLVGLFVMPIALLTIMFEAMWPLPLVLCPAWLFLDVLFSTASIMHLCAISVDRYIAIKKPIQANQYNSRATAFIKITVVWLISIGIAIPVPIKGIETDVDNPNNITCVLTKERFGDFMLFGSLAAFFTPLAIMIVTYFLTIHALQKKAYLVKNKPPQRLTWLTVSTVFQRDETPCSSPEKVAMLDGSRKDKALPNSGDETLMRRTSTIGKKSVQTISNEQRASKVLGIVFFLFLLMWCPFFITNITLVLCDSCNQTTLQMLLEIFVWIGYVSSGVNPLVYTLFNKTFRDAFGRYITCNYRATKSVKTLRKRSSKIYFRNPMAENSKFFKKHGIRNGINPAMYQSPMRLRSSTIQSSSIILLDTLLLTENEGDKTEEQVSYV

On to `CC(N)Cc1c[nH]c2ccc(OCc3cccs3)cc12` (stereo not drawn) [BW723C86, 1-(5-(thiophen-2-ylmethoxy)-1H-indol-3-yl)propan-2-amine], for which, on 5-HT2B receptor, the “5-HT2B receptor agonist activity (known from literature)” value (“5-HT2B receptor agonist activity” for short) was “selective 5-HT2B receptor agonist”. In assay [1] (setting [2]), the “increase in the mean muscle fiber area of regenerated muscle as compared with the Vehicle administration group” value (“increase in the mean muscle fiber area” for short) is given as 9.5% and the “histogram of the regenerated single-muscle fiber area vs Vehicle administration group” value (shortened to “histogram … vs Vehicle administration group”) is on record as “shifted to the right side”.

As for `Cn1c2c(c3ccccc31)CCNCC2` [PNU 22394, 6-methyl-1,2,3,4,5,6-hexahydroazepino[4,5-b]indole], the “5-HT2B receptor agonist activity” value at 5-HT2B receptor was 5-HT2B receptor agonist. In assay [1] (10 mM in PBS), the “increase in the mean muscle fiber area” value is on record as 8.5% and the “histogram … vs Vehicle administration group” value was “shifted to the right side”.

As to `CC(N)Cc1c[nH]c2ccc(O)cc12` (stereo not drawn) [α-methyl-5-HT, 3-(2-aminopropyl)-1H-indol-5-ol], on 5-HT2B receptor, the “5-HT2B receptor agonist activity” value is recorded as 5-HT2B receptor agonist. In addition, in assay [1] (setting [2]), the “increase in the mean muscle fiber area” value is given as 23% and the “histogram … vs Vehicle administration group” value is on record as “shifted to the right side”.
